Data published in US12622892B2, “Methods for treating endometriosis” (THE TEXAS A&M UNIVERSITY SYSTEM, priority 2020, dated 2026).

Tests used:
Format in all cases: cell-based, human
[1] = system: NEM cells; experiment: Cell growth, normal endometrial NEM cells; settings: 24 hr; 15-25 μM DIM-C-pPhOH, 5-10 μM DIM-C-pPhOH-3-Cl-5-OCH3; vs DMSO control; FIG. 4A
Procedure: (§1) Primary human endometriotic stromal cells from endometriosis patients: Ovarian endometrioma were isolated from endometriosis patients in the proliferative phase following the IRB-approved protocol. Isolated ectopic lesions were digested with collagenase type 3 (300 μg/ml) and DNaseI (40 μg/ml) for 90 min at 37° C., and then tissues were filtered through 150, 100, and 40 μm sieves to isolate endometrial stromal cells. The collected endometrial stromal cells were cultured in DMEM/F12 with 10% FBS plus 1× antibiotic/antimycotic solution and then validated by flow cytometry with a CD90 antibody (a mesenchymal marker). Henceforth, we refer to the stromal cells as ectopic endometrium isolated ovarian endometrioma (ESECT). As the control, primary normal endometrial stromal cells isolated from the biopsy of the eutopic endometrium of normal women (NEM) in the proliferative phase. All cells were incubated at 37° C. in CO2 incubator in an atmosphere of humidified 5% CO2 and 95% air.
(§2) Cell proliferation assay: Patient-derived endometriotic cells ESECT-7 and ESECT-40 were seeded into a 96-well plate, and the cells were then treated for 24 hr with either DMSO or different concentrations of DIM-C-pPhOH and DIM-C-pPhOH-3-Cl-5-OCH3. […] Dimethyl sulfoxide (DMSO) was added and incubated at […] for 10 min, and absorbance was measured at 570 nm.

[2] = system: NEM cells; experiment: Annexin V staining, NEM cells; settings: 25 μM DIM-C-pPhOH, 10 μM DIM-C-pPhOH-3-Cl-5-OCH3, vs DMSO control, FIG. 4C
[3] = system: NEM cells; experiment: Western blotting of growth promoting and proapoptotic gene products, NEM cells
[4] = system: ESECT-7 cells; experiment: Western blotting of growth promoting and proapoptotic gene products, ESECT-7
Description: (§3) Reagents and Antibodies: Annexin V Dead Cell Apoptosis Kit (V13241) was purchased from Invitrogen. The primary antibodies used were EGFR (4267, 1:1000), Survivin (2808, 1:1000), c-Caspase-3 (9661, 1; 1000), c-PARP (9541, 1:1000) from Cell Signaling Technology (Danvers, MA) and c-Myc (sc-40, 1:500), Bcl-2 (sc-509, 1:500) and Bax (sc-20067, 1:500) from Santacruz Biotechnology (Santacruz, CA), NR4A1 (ab109180, 1:3000) and α-SMA (ab32575, 1:3000) from Abcam (Cambridge, MA), β-Actin (A1978, 1:10000) from Sigma Aldrich Corporation (Milwaukee, WI). COL1A1 (GTX112731, 1:2000), CTGF (GTX124232, 1:2000) and FN (GTX112794, 1:2000) from GeneTex, Inc. (Irvine, CA). Secondary antibodies for rabbit (7074), mouse (7076) and Anti-rabbit Alexa Fluor (4412) purchased from Cell Signaling Technology (Danvers, MA). […]
(§4) Western Blotting: ESECT-7 and ESECT-40 cells (2×105) were seeded and allowed to attach for 24 hr, and cells were then treated for 24 hr with either DMSO or different concentrations of DIM-C-pPhOH and DIM-C-pPhOH-3-Cl-5-OCH3. Cells were then lysed and whole-cell lysates were resolved in 10% SDS-PAGE gels and proteins were transferred using PVDF membrane by wet blotting followed by primary and secondary antibody incubation and detected using ECL reagent as described.

[5] = system: ESECT-40 cells; experiment: Western blotting of growth promoting and proapoptotic gene products, ESECT-40
Description: as §3, §4

[6] = system: ESECT-40 cells; experiment: Annexin V staining, ESECT-40; settings: 10 μM DIM-C-pPhOH-3-Cl-5-OCH3, 25 μM DIM-C-pPhOH, FIG. 3B
Procedure: (§5) Annexin V staining: ESECT-7 and ESECT-40 cells were seeded in Nunc chambered cover glass followed by various drug treatments. The cells were then washed with ice-cold PBS, and 5 μL Alexa Fluor® 488 Annexin V with 100 μg/mL PI (as per the manufacturer's instructions) were added to the cells and incubated for 15 min, and the cells were observed using a Zeiss confocal fluorescence microscope.

[7] = system: ESECT-7 cells; experiment: Cell proliferation assay (MTT), ESECT-7; settings: 24 hr; 5-10 μM DIM-C-pPhOH-3-Cl-5-OCH3, 15-25 μM DIM-C-pPhOH; FIG. 2C
Procedure: as §1, §2

[8] = system: ESECT-7 cells; experiment: Annexin V staining, ESECT-7; settings: 10 μM DIM-C-pPhOH-3-Cl-5-OCH3, 25 μM DIM-C-pPhOH, FIG. 3A
Procedure: as §5

COc1cc(C(c2c[nH]c3ccccc23)c2c[nH]c3ccccc23)cc(Cl)c1O [DIM-C-pPhOH-3-Cl-5-OCH3]
growth of normal endometrial NEM cells [1]: did not suppress the growth | Annexin V staining [2]: did not enhance | levels of the cleaved form of PARP and Bax ([3]; 25 μM DIM-C-pPhOH, 10 μM DIM-C-pPhOH-3-Cl-5-OCH3, vs DMSO control, FIG. 4D): did not enhance | cMyc and EGFR expression ([3]; 15-25 μM DIM-C-pPhOH, 5-10 μM DIM-C-pPhOH-3-Cl-5-OCH3, vs DMSO control, FIG. 4B): did not decrease | expression of EGFR and cMyc ([4]; 5-10 μM, 24 hr, FIG. 2D): downregulated | markers of apoptosis (downregulation of survivin and Bcl-2, induced Bax, cleaved PARP and caspase-3) ([4]; Five μM, 24 hours, FIG. 3C): significantly induced several markers of apoptosis | expression of EGFR and cMyc ([5]; 5-10 μM, 24 hr, FIG. 2D): downregulated | markers of apoptosis (downregulation of survivin and Bcl-2, induced Bax, cleaved PARP and caspase-3) ([5]; Five μM, 24 hours, FIG. 3C): significantly induced several markers of apoptosis | Annexin V staining (apoptosis) [6]: significantly induced | growth of ESECT-7 cells [7]: effectively inhibited the growth | Annexin V staining (apoptosis) [8]: significantly induced
